Source: ChEMBL document CHEMBL1201862, “PubChem BioAssay data set” (2004)
The source made the active and inactive calls.

What was measured:
Troponin, cardiac muscle = Troponin, cardiac muscle (Homo sapiens, UniProt P19429+P45379+P63316); experiment: Fluorescence-based biochemical high throughput dose response assay for activators of the calcium sensitivity of cardiac Regulated Thin Filaments (RTF). [Related pubchem assays (depositor defined):AID493008, AID493018, AID504382, AID504383]; type: protein-complex assay
SUMO E1/E2 = SUMO E1/E2 (Homo sapiens, UniProt P63279+Q9UBE0+Q9UBT2); experiment: SAR analysis of SUMOylation using HTRF in an in-Vitro dose response assay. [Related pubchem assays (depositor defined):AID2006, AID2011, AID2018, AID2069, AID2658]; type: functional
[1] = biological target: T1, Voltage-gated N-type calcium channel alpha-1B subunit/Amyloid beta A4 precursor protein-binding family A member 1 (Homo sapiens, UniProt Q00975+Q02410); experiment: disruptors of Mint-PDZ/N-type channel peptide interaction – biochemical, HTRF, set 2, SAR follow-up (AID 434980); type: functional
[2] = biological target: T1, Voltage-gated N-type calcium channel alpha-1B subunit/Amyloid beta A4 precursor protein-binding family A member 1; experiment: disruptors of Mint-PDZ/N-type channel peptide interaction – biochemical, HTRF, SAR follow-up (AID 2489); type: functional
[3] = biological target: T2, Runt-related transcription factor 1/Core-binding factor subunit beta (Homo sapiens, UniProt Q01196+Q13951); experiment: disruptors of Runt domain/CBFb-SMMHC interaction – biochemical, FRET, Cerulean-Runt, Venus-CBFb-SMMHC, uHTS, […] (AID 1434); type: protein assay
[4] = biological target: T2, Runt-related transcription factor 1/Core-binding factor subunit beta; experiment: Runt domain/CBFb-SMMHC interaction disruptors – biochemical, TR-FRET (AID 1438); type: protein assay
[5] = NIH3T3 cell viability loss – ATP luminescence, mouse fibroblasts, counter-screen, dose response (AID 2010); type: functional, cell-based;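 note: cells exposed to compound for about 90 hours before reading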
HEK293 [6] = experiment: cells; type: functional, cell-based; settings: Homo sapiens
[7] = biological target: T3, Heat shock factor protein 1 (Mus musculus, UniProt P38532); experiment: enhancement of HSF1-driven luciferase signal – cell-based, NIH3T3, luminescence, dose retest, confirmation (AID 435004); type: functional;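 note: stress induced by proteasome inhibitor MG132 added 30 min after compound; luciferase reporter driven by HSF1 response element in NIH3T3 cells; actives raise luminescence as potentiators of the MG132 stress response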
T3 sequence (P38532 whole entry): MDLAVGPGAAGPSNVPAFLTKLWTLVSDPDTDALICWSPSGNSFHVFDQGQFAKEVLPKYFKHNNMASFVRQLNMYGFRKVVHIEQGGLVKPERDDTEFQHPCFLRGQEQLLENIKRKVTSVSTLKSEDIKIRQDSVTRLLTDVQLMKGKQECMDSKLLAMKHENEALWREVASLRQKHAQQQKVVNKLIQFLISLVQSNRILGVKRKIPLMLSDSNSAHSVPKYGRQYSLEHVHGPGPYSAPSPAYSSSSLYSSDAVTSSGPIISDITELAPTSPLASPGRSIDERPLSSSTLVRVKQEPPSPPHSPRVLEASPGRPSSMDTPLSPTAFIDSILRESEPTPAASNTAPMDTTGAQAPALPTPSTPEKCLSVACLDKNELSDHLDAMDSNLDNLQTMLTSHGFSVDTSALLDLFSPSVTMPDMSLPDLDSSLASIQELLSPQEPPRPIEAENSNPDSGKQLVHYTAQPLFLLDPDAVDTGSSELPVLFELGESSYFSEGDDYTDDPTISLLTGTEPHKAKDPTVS

[8] = Trypanosoma cruzi growth suppression in host cells – NIH3T3 host cells, beta-gal luminescence, confirmation (AID 2044); type: functional, cell-based;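 note: intracellular parasites grown in NIH/3T3 mouse fibroblasts as host cells; luminescent beta-galactosidase reporter signal from transgenic T. cruzi replicating inside host cells; inhibitors lower the luminescence signal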
HEK293 [9] = experiment: cells; type: functional, cell-based; settings: Homo sapiens; remark: listed apart in the source
HEK293 [10] = experiment: inhibition of NOD1-driven NF-kB reporter – cell-based, luminescence, uHTS, primary screen (AID 1578); type: functional; settings: Homo sapiens
[11] = blockers of HIV-1 ZM109 envelope-driven cell-cell fusion – HeLa effector, CEM target cells, luciferase, cherry-pick, dose response (AID 652058); type: functional, cell-based;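 note: luciferase signal from HIV-1 Env mediated cell-cell fusion of effector and target cells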
[12] = MIN6 cell viability loss – mouse insulinoma, cytotoxicity control, dose response (AID 2122); type: functional;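 note: confirmatory high-throughput counterscreen run to flag cytotoxic compounds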
[13] = decrease of insulin promoter-GFP reporter – imaging, high-content screening, mouse beta cells (AID 1628); type: functional; settings: MIN6
[14] = blockers of HIV-1 envelope-mediated cell-cell fusion – cherry-pick, dose response (AID 652057); type: functional, cell-based
[15] = viability loss in CEM21 cells – cell-based, CellTiter-Glo luminescence, cherry-picked, cytotoxicity control for viral fusion inhibitor project, dose response (AID 652042); type: functional;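 note: potency for signal decrease meaning cytotoxicity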
[16] = non-specific 3'UTR reporter inhibition in Clone20-Shn3RL – cell-based, Renilla luciferase, cherry-picked, counter-screen for Shn3 inhibitor project, dose response (AID 624133); type: functional
[17] = off-target signal loss in HeLa-CEM21 co-culture – HeLa F-luc CTL cells, cherry-picked, counter-screen for HIV-1 Env fusion inhibitor project, dose response (AID 652040); type: functional, cell-based;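 note: potency for signal decrease marking cytotoxic or nonspecific inhibition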
[18] = reduction of Shn3 3'UTR-driven luciferase in osteoblasts – cell-based, Clone20 osteoblasts, firefly luciferase, cherry-picked, dose response (AID 624132); type: functional;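 note: firefly luciferase luminescence from reporter carrying the Shn3 3'UTR in osteoblasts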
[19] = loss of viability in HepG2 cells – cell-based, CellTiter-Glo, cherry-picked, cytotoxicity control for Shn3 inhibitor project, dose response (AID 624134); type: functional
[20] = Luminescence Cell-Based Dose Response HTS to Identify Inhibitors of 5'UTR Stem-Loop Driven Prion Protein mRNA Translation in H4 Neuroglioblastoma Cells. [Related pubchem assays: 1827 (Project Summary), 1813 (Primary HTS)]; type: functional
[21] = biological target: T4, Type-1 angiotensin II receptor (Homo sapiens, UniProt P30556); experiment: antagonism of angiotensin II type 1 receptor – cell-based, uHTS hits, selectivity assay for APJ receptor antagonist project, dose response (AID 463214); type: functional;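 note: antagonist potency against angiotensin II stimulated AT1 response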
T4 sequence (P30556 whole entry): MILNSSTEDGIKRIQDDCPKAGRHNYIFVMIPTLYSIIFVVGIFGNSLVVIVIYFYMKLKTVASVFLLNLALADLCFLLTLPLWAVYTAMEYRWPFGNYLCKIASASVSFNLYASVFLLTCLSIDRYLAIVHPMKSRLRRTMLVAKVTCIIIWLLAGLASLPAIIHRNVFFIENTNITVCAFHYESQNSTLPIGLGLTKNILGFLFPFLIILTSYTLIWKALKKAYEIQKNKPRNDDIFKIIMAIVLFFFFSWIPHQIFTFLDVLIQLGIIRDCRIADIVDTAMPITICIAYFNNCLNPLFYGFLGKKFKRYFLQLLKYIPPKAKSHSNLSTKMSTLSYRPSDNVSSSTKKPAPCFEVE

Beta-galactosidase = Beta-galactosidase (Escherichia coli, UniProt Q8VNN2); experiment: PubChem AID 485352; type: functional
Jurkat = experiment: blockers of NF-kB activation in T cells – Jurkat, luciferase reporter, luminescence, B- and T-cell, dose response (AID 489004); type: functional, cell-based; settings: Homo sapiens;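 note: NF-kB luciferase reporter Jurkat cells stimulated with PMA plus ionomycin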
[22] = luciferase reporter signal suppression in cells – H4 neuroglioma cells, luminescence, dose response (AID 1990); type: functional, cell-based
INS1 = experiment: INS-1E survival protection against cytokine death – cell-based, luminescence, retest, dose response (AID 449756); type: functional; settings: Rattus norvegicus;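 note: cell death triggered by IL-1 beta plus TNF-alpha plus IFN-gamma mixture; protective hits raise ATP signal compared with cytokine alone wells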
[23] = biological target: Photoreceptor-specific nuclear receptor (Homo sapiens, UniProt Q9Y5X4); type: functional, cell-based;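 note: CHO-S cells with Gal4-NCOR and VP16-NR2E3 two-hybrid luciferase reporter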
[24] = HEK-293T viability loss, compound-treated – cell-based, uHTS hits, cytotoxicity control for B/T-cell NF-kB inhibitor project, dose response (AID 489019); type: functional;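 note: IC50 reflects cytotoxicity as loss of cell viability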
[25] = biological target: E3 ubiquitin-protein ligase Mdm2 (Homo sapiens, UniProt Q00987); experiment: MDM2-luc reporter signal enhancers, multi-concentration potency testing, MDM2 ubiquitin-protein ligase inhibitor program, whole-cell format, luminescence detection, 384-well microplate (AID 1394); type: functional;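 note: MDM2 E3 inhibitors raise luminescence so EC50 is for signal enhancement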
[26] = biological target: G-protein coupled receptor 55 (Homo sapiens, UniProt Q9Y2T6); experiment: inhibition of LPI-stimulated GPR55 beta-arrestin translocation – imaging, U2OS, beta-arrestin-GFP, LPI agonist, primary screen (AID 2013); type: functional;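 note: antagonist potency measured as reduced agonist-driven arrestin aggregation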

**Q.** Which EC50 (Troponin, cardiac muscle) does the source give for `COc1ccc(/C=C2\SC(=S)N(CCCC(=O)Nc3ccccc3C(=O)O)C2=O)cc1OC` here?
**A.** Its EC50 is 12.9 µM (inactive).

**Q.** Which IC50 (SUMO E1/E2) does the source give for `COc1ccccc1C(=O)NC(=O)COC(=O)c1cc(-c2ccco2)nc2ccccc12` here?
**A.** The IC50 was 2.06 µM (active).

**Q.** What about the IC50 [1] of the same compound?
**A.** The IC50 was 3.41 µM (active).

**Q.** And the IC50 [2]?
**A.** Its IC50 is 15.4 µM (active).

**Q.** Which results are given for `Cc1ccc(-n2c(C)cc(/C=N/NC(=O)Cn3c4ccccc4c(=O)c4ccccc43)c2C)cc1`?
**A.** IC50 [3]: 2.37 µM (active); IC50 [4]: 13 µM (active)

**Q.** With `Cc1cc(C(=O)N/N=C/c2ccc([N+](=O)[O-])s2)c2ccccc2n1` as the compound, how does the EC50 [5] read?
**A.** The EC50 was > 30 µM (not active).

**Q.** What about the IC50 (HEK293 [6]) of the same compound?
**A.** The IC50 was > 20 µM (inactive).

**Q.** And the EC50 [7]?
**A.** Its EC50 is 13 µM (active).

**Q.** And the EC50 [8]?
**A.** Its EC50 is 0.623 µM (active).

**Q.** And the IC50 (HEK293 [9])?
**A.** Its IC50 is 15.8 µM (active).

**Q.** And the EC50 (HEK293 [10])?
**A.** Its EC50 is 7.6 µM (active).

**Q.** What does the source list for `COc1ccc(Nc2cc(C)nc(NCc3ccccc3)n2)cc1`?
**A.** AC50 [11]: 3.16 µM (active); IC50 [12]: 0.699 µM (active); IC50 [13]: 1.14 µM (active); AC50 [14]: 8.45 µM (active); EC50 [5]: > 60 µM (not active); AC50 [15]: 26.7 µM (active); AC50 [16]: 0.565 µM (active); EC50 [8]: 0.12 µM (active); AC50 [17]: 21.2 µM (active); AC50 [18]: 3.9 µM (active); AC50 [19]: 22 µM (active)

**Q.** With `C=C1C(=O)O[C@@H]2C[C@@H](C)[C@@H]3C=CC(=O)[C@@]3(C)[C@@H](O)[C@H]12` [HELENALIN] as the compound, how does the EC50 [20] read?
**A.** The EC50 was 8.32 µM (active).

**Q.** What about the IC50 [21] of the same compound?
**A.** Its IC50 is 18.6 µM (active).

**Q.** And the EC50 (Beta-galactosidase)?
**A.** Its EC50 is > 40 µM (inactive).

**Q.** What about the IC50 (Jurkat) of the same compound?
**A.** Its IC50 is 1.02 µM (active).

**Q.** What about the EC50 [22] of the same compound?
**A.** Its EC50 is 4.62 µM (inconclusive).

**Q.** And the AC50 (INS1)?
**A.** Its AC50 is 2.27 µM (active).

**Q.** And the IC50 [23]?
**A.** The IC50 was 1.92 µM (active).

**Q.** What about the IC50 [24] of the same compound?
**A.** The IC50 was > 80 µM (inactive).

**Q.** What about the EC50 [25] of the same compound?
**A.** The EC50 was 0.42 µM (active).

**Q.** And the IC50 [26]?
**A.** Its IC50 is 2.64 µM (active).

**Q.** What about the AC50 [16] of the same compound?
**A.** The AC50 was 1.53 µM (active).

**Q.** What about the AC50 [18] of the same compound?
**A.** Its AC50 is 0.825 µM (active).

**Q.** What about the AC50 [19] of the same compound?
**A.** Its AC50 is 4.35 µM (active).
